Laboratory results published in ChEMBL document CHEMBL4359832, “Fragment-Based Discovery of Novel Potent Sepiapterin Reductase Inhibitors” (J Med Chem, 2019).

Assay: physchem
Conditions: buffer, pH 7.4

Compound	logD
CC1Cc2ccccc2N1C(=O)c1c(O)cc(Cl)cc1Cl (stereo not drawn)	3.5
COc1cc(Cl)cc(Cl)c1C(=O)N1CCC2(CCC2)C1	4
O=C(c1ncc(Cl)cc1O)N1CCC2(CCC2)C1	4.9
O=C(c1c(O)cc(Cl)cc1Cl)N1CCC(Cc2ccccc2)C1 (stereo not drawn)	3.8
O=C(c1c(O)cncc1Cl)N1CCC2(CCC2)C1	1.2

Further lines, results first:

logD	Compound
3.7	O=C(c1c(O)cc(Cl)cc1Cl)N1CCCC2(CCC2)C1
1.7	O=C(c1c(O)cc(Cl)cc1Cl)N1CCC(c2cccnc2)C1 (racemic)
1.6	Cn1cc(C2CCN(C(=O)c3c(O)cc(Cl)cc3Cl)C2)cn1 (racemic)
